Test results: patent publication US20220370450A1, “CONTROLLED-RELEASE COMPOSITION FOR ORAL ADMINISTRATION COMPRISING COMPLEX OF ALPHA ADRENERGIC BLOCKER COMPOUND AND CLAY MINERAL” (Korea Institute Of Geoscience And Mineral Resources, priority 2019, published 2022)

Assays:
[1] = Drug release experiment using a semi-permeable membrane; assay type: physicochemical; settings: for elution rate: in both pH 1.2 and 7.8; for time within which most of the drug was released / drug released within initial 1 hour: semi-permeable membrane bag, cut-off 12,000 to 14,000 Da, 37° C.; for drug released within initial 1 hour: eluate pH 1.2 or pH 7.8; for release rate (membrane release amount of drug per unit time) of the drug solution relative to the drug-bentonite complex dispersion solution: semi-permeable membrane cut-off 12,000 to 14,000 Da
Experimental: The amount of the drug-bentonite complex was adjusted so that the drug final concentration inside the elution system became 1 μg/ml. At this time, as the eluate, a 0.1 N hydrochloric acid solution of pH 1.2 and a phosphate buffer of pH 7.8 were used and the elution was performed while maintaining 37° C. While the eluate outside the semi-permeable membrane was partially taken by time and the same amount of eluate was compensated, the experiment was conducted, and the drug concentration of the taken sample was analyzed using high performance liquid chromatography.

in vivo = settings: Sprague-Dawley, rat, po, 1 mg/kg
Experimental: (§1) The breeding conditions of the experimental animals were as follows.
(§2) After the femoral region of the fixed rat was shaved, the blood-gathering was prepared by injecting a cannula. A drug-bentonite complex dispersion solution as an experimental group and a drug aqueous solution as a control group were administered using an oral zonde and then a certain amount of plasma was collected through the cannula for each predetermined time and the plasma drug concentration was measured.
(§3) The drug concentrations in the plasma samples were analyzed using a mass spectrometer.

[2] = rat, in vivo, po, 1 mg/kg
Experimental: as §1, §2, §3

release amount of the drug solution relative to the complex dispersion solution ([1]; after 2 hours of the test, pH 1.2) | release amount of the drug solution relative to the complex dispersion solution ([1]; after 2 hours of the test, pH 7.8) | elution rate [1] | time within which most of the drug was released [1] | drug released within initial 1 hour [1] | release rate (membrane release amount of drug per unit time) of the drug solution relative to the drug-bentonite complex dispersion solution [1] | AUC(0-t) (in vivo) | Cmax (in vivo) | Tmax (in vivo) | bioavailability (in vivo) | release amount of the drug solution relative to the complex dispersion solution ([1]; after 4 hours of the test) | time within which the plasma concentration reached the maximum plasma concentration (Cmax) [2] | SMILES
two times larger | significantly larger | fast elution rate | ≤ 4 h | ≥ 70% | larger | 247 ± 45.1 ng·h/mL | 129 ± 36.2 ng/mL | 22.8 ± 7.8 min | 100% | – | – | COc1cc2nc(N3CCN(C(=O)c4ccco4)CC3)nc(N)c2cc1OC [Prazosin, prazosin]
– | – | fast elution rate | ≤ 4 h | ≥ 50% | two times larger | 186 ± 54.7 ng·h/mL | 67.3 ± 14.2 ng/mL | 45 ± 15 min | 100% | two times larger | 30 to 60 min | COc1cc2nc(N3CCN(C(=O)C4COc5ccccc5O4)CC3)nc(N)c2cc1OC (centres unmarked) [Doxazosin, doxazosin]
